Test results from US20260242478A1, “ANTIBODIES FOR TARGETING PSMA AND CD28 AND USES THEREOF” (Janux Therapeutics, Inc., priority 2023, published 2026).
Where no end group is shown, it is not given here.

Test system: anti-CD28 scFv
Test: Panning ELISA of clonal phage, anti-CD28 scFv, with or without CD28 soluble protein (Peptide-9 library)
Format: binding
Conditions: background (no anti-CD28 scFv)
Protocol: Clonal phage were harvested as crude supernatants and screened via standard enzyme linked immunosorbent assays (ELISAs). […] Prior to the addition of clonal phage, wells were incubated with blocking buffer and CD28 soluble protein or blocking buffer alone. Without washing or aspirating, clonal phage supernatants were then added to the wells and incubated for a short time. Wells were then washed followed by detection of bound phage using a horse radish peroxidase conjugated anti-M13 antibody. Clonal phage of interest were then sent for sequence analysis.

Sequence of anti-CD28 scFv (as listed by the source): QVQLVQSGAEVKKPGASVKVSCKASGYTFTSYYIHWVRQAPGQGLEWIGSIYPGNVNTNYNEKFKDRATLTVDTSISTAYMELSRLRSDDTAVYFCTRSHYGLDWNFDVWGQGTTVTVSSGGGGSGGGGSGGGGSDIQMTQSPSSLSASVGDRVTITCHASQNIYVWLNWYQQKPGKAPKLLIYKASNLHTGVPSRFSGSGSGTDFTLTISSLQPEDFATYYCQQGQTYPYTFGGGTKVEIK

Substance	Background signal	Background signal (Peptide-9 library)
Phage-330 (MDWCPRFLWDVCFN)	0.100	
Phage-394 (MDWCPRYMWSDCFF)	0.082	
Phage-310 (MDWCPRDLWDECFN)	0.066	
Phage-124 (MDWCPRPLWDMCFF)		0.063
Phage-43 (MDWCPRALWHECFY; not fully specified; cysteine pairing not given here)		0.115
Phage-427 (VILCPTTMWNRCFH)		0,100
Phage-110 (MDWCPRYLWDECFN)		0.069
Phage-59 (MDWCPRDSWHLCFA; left off: large carriers)		0.073
Phage-52 (MDWCPINLWDECFS; not fully specified; cysteine pairing not given here)		0.062
Phage-95 (MDWCPRFLWSECFN)		0.062
Phage-49 (MSWCPIHLWNECFN; not fully specified; cysteine pairing not given here)		0.083
Phage-315 (MDWCPTYLWHVCFS)	0.089	
Phage-413 (MDWCPSDMWSNCFN)		0.070
Phage-419 (VDWCPAHMWNECYN)		0.208
Phage-269 (DSFCTWSAWQECGR; not fully specified; cysteine pairing not given here)	0.072	
Phage-134 (MDWCPSYLWHECFA)		0.096
Phage-96 (MDWCPRTLWAYCFN)		0.070
Phage-386 (NHWCPTTLWNRCVA)	0.293	
Phage-274 (WVSCLRHHWLECFH; not fully specified; cysteine pairing not given here)	0.781	
Phage-290 (MDWCPRDLWSVCFS)	0.090	
Phage-451 (MDWCPRFWWHECYA)		0.246
Phage-293 (MDWCPRHLWFECFN)	0.064	
Phage-373 (MDWCPRILWSDCFN)	0.082	
Phage-336 (MDWCPRDLWNWCFN)	0.139	

Substance	Background signal	Background signal (Peptide-9 library)
Phage-116 (MDWCPRDLWYACFA)		0.072
Phage-279 (MDWCPRYLWAECFN; not fully specified; cysteine pairing not given here)	0.068	
Phage-311 (MDWCPRDLWYQCFN)	0.069	
Phage-288 (MDWCPIALWDFCFA)	0.073	
Phage-349 (LDWCPRHLWALCFN)	0.073	
Phage-126 (MDWCPRFLWNECFN)		0.072
Phage-437 (MDWCPVDRWADCFN)		0.071
Phage-395 (MDWCPKDMWAECFN)	0.083	
Phage-364 (MDWCPRSLWAQCFY)	0.067	
Phage-317 (MDWCPRHLWHECFT)	0.103	
Phage-291 (MDWCPRYLWHVCFY)	0.227	
Phage-139 (MDWCPRDLWDVCFA)		0.096
Phage-432 (IDWCPIIQGLPCFA)		0.058
Phage-113 (MDWCPRDLWNVCFF)		0.164
Phage-428 (MNWCPSTMWNRCLT)		0.067
Phage-328 (MDWCPRALWDHCFN)	0.323	
Phage-299 (MDWCPIYLWAECFN)	0.078	
Phage-135 (MDWCPKFLWHECFS)		0.065
Phage-405 (MDWCPMSMWAFCFD)		0.102
Phage-41 (MAWCPRDKWSECFS; not fully specified; cysteine pairing not given here)		0.062
Phage-398 (MDWCPRNMWNECFF)	0.095	
Phage-125 (MDWCPVSLWHVCFY)		0.107
Phage-425 (MDLCPTAMWNRCFY)		0.063
Phage-375 (MNWCPRALWHECFL)	0.085	

Substance	Background signal	Background signal (Peptide-9 library)
Phage-382 (ITWCPTSLWNRCLV)	0.077	
Phage-399 (MDWCPRSMWDSCFN)	0.332	
Phage-275 (MDWCPRDHWVDCYS; not fully specified; cysteine pairing not given here)	0.172	
Phage-55 (QDWCPRHMWSFCFH; not fully specified; cysteine pairing not given here)		0.138
Phage-141 (MDWCPRSLWNVCFF)		0.106
Phage-47 (MAWCPVYLWHECFN; not fully specified; cysteine pairing not given here)		0.094
Phage-294 (MDWCPRSLWDYCFA)	0.115	
Phage-366 (MHWCPLYLWDECFY)	0.153	
Phage-388 (MDWCPRFMWNFCFF)	2.200	
Phage-374 (MAWCPLDLWDKCFY)	0.079	
Phage-329 (MDWCPRALWNVCFA)	0.071	
Phage-327 (MHWCPRDLWHVCFN)	0.071	
Phage-100 (MDWCPRYLWTECFN)		0.062
Phage-320 (MDWCPTYLWNECFN)	0.120	
Phage-401 (MDWCPLDMWVLCFA)		0.085
Phage-137 (MDWCPRYLWHECFH)		0.101
Phage-332 (IDWCPRALWDACLA)	0.269	
Phage-323 (MDWCPTYLWNVCFA)	0.085	
Phage-372 (MDWCPRYLWVDCFA)	0.095	
Phage-350 (MDWCPWFLWNECFN)	0.158	
Phage-272 (MVWCMSVGWAVCLN; cysteine pairing not given here; also: large carriers left off)	0.289	
Phage-453 (MDWCPSDYWYVCFA)		0.065
Phage-54 (MNWCPRDMWYQCFN; not fully specified; cysteine pairing not given here)		0.068
Phage-365 (MDWCPSYLWPVCFN)	0.079	

Substance	Background signal	Background signal (Peptide-9 library)
Phage-114 (MDWCPRYLWFECFA)		0.066
Phage-345 (MDFCPRFLWHECFN)	0.063	
Phage-316 (MDWCPRSLWNYCFA)	0.067	
Phage-140 (MDWCPMDLWDVCFN)		0.090
Phage-138 (MDWCPTNLWHECFA)		0.061
Phage-131 (MDWCPRSLWIYCFN)		0.113
Phage-44 (MDWCPIALWAECFN; not fully specified; cysteine pairing not given here)		0.111
Phage-130 (MDWCPRYLWDACFF)		0.066
Phage-331 (MDWCPRHLWDECFY)	0.098	
Phage-440 (MDWCPRDRWVDCFN)		0.106
Phage-430 (IHLCHWVPWIKCSH)		2.516
Phage-127 (MDWCPRALWNECFA)		0.080
Phage-400 (MHWCPTYMWSECFA)		0.070
Phage-115 (MDWCPRYLWHECFN)		0.105
Phage-353 (IDWCPLHLWHECYH)	0.067	
Phage-387 (MDWCPRHLWLECFN)	0.064	
Phage-449 (MVDCPLISFDECLA)		0.246
Phage-396 (TDWCPRDMWYLCFN)	0.082	
Phage-318 (MDWCPMFLWDECFN)	0.132	
Phage-57 (MDWCPRHRWVDCFY; left off: large carriers)		0.073
Phage-446 (MDWCPRDRWDDCFN)		0.069
Phage-281 (MDWCPRSLWFLCFN)	1.110	
Phage-411 (MSWCPRFMWHECFN)		0.081
Phage-357 (MDWCPRLLWHECFN)	0.071	

Substance	Background signal	Background signal (Peptide-9 library)
Phage-381 (MAWCPRILWHQCFN)	0.113	
Phage-423 (INLCPTPMWNRCWL)		0.119
Phage-407 (MNWCPIHMWNQCFA)		0.085
Phage-439 (MDWCPRDRWDVCFA)		0.073
Phage-313 (MDWCPRSLWNYCFN)	0.076	
Phage-305 (MDWCPRDLWTECFS)	0.080	
Phage-123 (MDWCPIHLWNECFA)		0.104
Phage-285 (MDWCPRDLWAMCFA)	0.071	
Phage-359 (MDWCPRPLWHECFA)	0.063	
Phage-282 (MDWCPRDLWFACFA)	0.060	
Phage-303 (MDWCPRYLWTECFS)	0.074	
Phage-393 (MDWCPRDMWFECFN)	0.069	
Phage-58 (MHWCPIDRWADCFN; left off: large carriers)		0.074
Phage-118 (MDWCPRHLWDECFF)		0.074
Phage-376 (MDWCPRHLWTYCFH)	0.109	
Phage-334 (MDWCPRYLWDECFS)	0.069	
Phage-371 (MAWCPRYLWAECFF)	0.510	
Phage-404 (MDWCPRDMWTSCFN)		0,100
Phage-304 (MDWCPKFLWDECFA)	0.311	
Phage-48 (IDWCPRYLWDECYN; not fully specified; cysteine pairing not given here)		0.061
Phage-412 (QHWCPRDMWNDCYA)		0.066
Phage-415 (MDWCPMYMWHKCFH)		0.099
Phage-99 (MDWCPRYLWNMCFH)		0.114
